Drawing on the pKa sets of Baltruschat and Czodrowski (2020), this text covers pKa for 68 molecules.

Broadly, the pKa is the pH at which an ionisable group is half protonated.

In turn, `NCCC#CC#CCCC(=O)[O-]` had a pKa (basic group) of 9.27. With `Cc1ccc(-c2cnc(-c3ccc(Br)cc3)o2)cc1`, the pKa (basic group) was 0.56. `COC(=O)c1c2ccccc2nc2ccccc12` yielded a pKa (basic group) of 3.45.

As for `Nc1cccc2ncncc12`, under “basic group”, the pKa is 3.57. In turn, `[O-]c1ccc(Nc2ccc(O)cc2)cc1` came in with a pKa (acidic group) of 10.6. For the molecule `CC(C)(C)c1ccncc1`, the pKa (basic group) came to 5.95. Take `CCOC(=O)COc1ccc(S(=O)(=O)c2ccc(O)c(C[NH3+])c2)c(Cl)c1Cl`: the pKa (acidic group) is 6.67. `Oc1cccc2c1CCC2` returned a pKa (acidic group) of 10.2. Take `O=NCC(=O)c1cccnc1`: the pKa (acidic group) came out at 7.8. The same measure, in the same setting: then `CCC1(c2ccccc2)C(=O)NC(=S)NC1=O`, with 6.3; and `NC(=O)C(N)CC(=O)O` (configuration not stated), with 7.95. For `N[C@@H](Cc1nc[nH]c1I)C(=O)[O-]`, the pKa is 12.4 (acidic group) and 8.62 (basic group).

As for `COc1ccc2nccc(C(O)C3CCCC[NH2+]3)c2c1` (configuration not stated), the pKa (basic group) came to 4.34. `S=CNc1cccc(Cl)c1`: the pKa (acidic group) was 10.8. Turning to `CC(=O)C(C(C)=O)c1ccccc1`, where the note is “acidic group”, the pKa turned out to be 9.32.

With `Nc1ccc(-c2nnn[nH]2)cc1`, where the note is “acidic group”, the pKa was determined as 4.55. For `O=N/C(=N/O)c1ccccc1`, the pKa (acidic group) stood at 4.9. The molecule `Cc1cccc(C(=O)O)c1O` showed a pKa (acidic group) of 3.02.

In turn, `Cc1nn(-c2ccccc2)c(O)c1C` displayed a pKa (acidic group) of 11.3. For the molecule `Nc1ccncc1N`, the pKa (basic group) amounted to 9.06. On the same count and under the same terms, the figure for `Cc1ccc2c(c1)N1CC[NH+]2CC1` is 2.4. `O/C(=C\c1ccccc1)c1ccco1` gave a pKa (acidic group) of 8.5. The molecule `CC(C)CC(=O)CC(=O)C(F)(F)F` came in with a pKa (acidic group) of 6.52. For the setting “basic group”, `Nc1ccc2nc(/C=C/c3ccccc3)ccc2c1` displayed a pKa of 5.5. As for `COc1cccc(C(=O)O)c1C`, the pKa (acidic group) came to 3.72. The same measure, in the same setting: the figure for `OCCCl` is 14.4. Regarding `CCN(CC)CCCN(CC)CC`, the pKa (basic group) is 10.2.

In the case of `CC(C)CCN`, where the note is “basic group”, the pKa was 10.9.

For `N#CC(C#N)=NNc1ccc([N+](=O)[O-])cc1`, the pKa (acidic group) is 5.5. As for `COc1ccc2c(c1)[nH]c1c(C)nccc12`, the pKa by setting is: (acidic group) 13.5; (basic group) 7.73.

For the setting “acidic group”, `Oc1ccc(O)cc1` had a pKa of 9.93. On to `CN=C1CCCCC1`, for which, for the setting “basic group”, the pKa came to 9.43.

In turn, `CCCN(CCC)c1ccccc1` yielded a pKa (basic group) of 6.13. `CCC1(CC)SC(=O)NC1=O` had a pKa (acidic group) of 6.42. The same measure, in the same setting: the figure for `Cc1ccc(C(=O)O)c([N+](=O)[O-])c1` is 2.68. Where the note is “acidic group”, `Oc1oc(-c2ccccc2)nc1Cc1ccccc1` came in with a pKa of 8.72. In turn, `COc1ccc2ccccc2n1` showed a pKa (basic group) of 3.17.

`CC(C)SCC(=O)O` gave a pKa (acidic group) of 3.72.

Take `CCCCCCCCCNCc1ccc(C)cc1`: the pKa (basic group) worked out at 9.48. Consider `CCNCC[Se-]`, for which the pKa (basic group) turned out to be 10.9. `Nc1nc2nc[nH]c2c(O)[nH+]1` returned a pKa (acidic group) of 3.25. On the same count and under the same terms, then `O=C(c1ccccc1)c1cc[nH]n1`, with 12; and `CCOC(=O)c1ccc(O)cc1`, with 9.34. With `CC(C)(C)N1NC2CCC1CC2`, the pKa (basic group) is 9.54. `O=[N+]([O-])c1ccc2c(c1)C([P+](c1ccccc1)(c1ccccc1)c1ccccc1)c1ccccc1-2.[Br-]` (configuration not stated) came in with a pKa (acidic group) of 5.36. Molecule `[O-]c1ncnc2ccccc12` registered a pKa (basic group) of 9.81.

Regarding `O=C([O-])[C@@H](P)CC[C@H](P)C(=O)O`, the pKa (acidic group) amounted to 4.41. Consider `NC(=O)/C=C(\O)c1ccncc1`, for which, under “basic group”, the pKa turned out to be 7.36. As to `CCCCCCCC[NH2+]CCC(=O)O`, the pKa (acidic group) was 3.56.

On to `Nc1n[nH]c(N)c1/N=N/c1ccccc1`, for which the pKa (basic group) is 3.43. `O=C(O)c1ccc2sc(Cn3cc[nH+]c3)cc2c1`: for the setting “acidic group”, the pKa was 3.9. Regarding `Nc1n[nH]c(N)c1/N=N/c1ccc(O)cc1`, the pKa by setting is: (acidic group) 7.81; (basic group) 3.48. As to `CCC(C)N(C)c1ccccc1` (configuration not stated), the pKa (basic group) came to 6.03. `O=C([O-])C(NCC[NH2+]C(C(=O)[O-])c1ccccc1O)c1ccccc1O` (configuration not stated) gave a pKa (basic group) of 6.32.

In the case of `Cc1c(O)n[nH]c1-c1ccccc1`, the pKa (acidic group) worked out at 7.6. In turn, `Cc1cnnc2c(O)cccc12` showed a pKa (acidic group) of 8.34 and a pKa (basic group) of 3.18. For `CCOP(=O)(O)NS(=O)(=O)c1ccccc1`, the pKa (acidic group) was found to be 1.8. For `C[NH+](C)CCNCC[NH+](C)C`, the pKa (basic group) turned out to be 3.84. In the case of `Cc1cc(C(=O)O)ccc1Cl`, the pKa (acidic group) came out at 4.07. Where the note is “basic group”, `[SH2+]c1cccc2ncccc12` gave a pKa of 3.31. `N#CC(C#N)=C(C#N)NC(C#N)=C(C#N)C#N`: the pKa (acidic group) is 2.1.

For `CC1(C)NC(=S)NC1=S`, the pKa (acidic group) worked out at 7.65. As to `COc1cnccc1C(O)O`, the pKa (acidic group) came to 11.7.

In turn, `COc1cc2c(cc1O)[C@H]1Cc3cc(OC)c(OC)cc3[C@H](C2)N1C` registered a pKa (acidic group) of 9.8. The molecule `ClC1CN2CCC1CC2` (configuration not stated) came in with a pKa (basic group) of 8.79.

With `Clc1ccc(C(Cn2ccnc2)OCc2ccc(Sc3ccccc3)cc2)c(Cl)c1` (configuration not stated), the pKa (basic group) stood at 6.54. Same read-out and setting: the figure for `Nc1ccc(-c2cnc(-c3ccc(Cl)cc3)o2)cc1` is 3.52. Under “acidic group”, `CN(C)c1cccc(NC=S)c1` had a pKa of 11.8.
